Where two headings read alike, the source gives them in different places.
Columns and labels:
Type in all cases: cell-based
[1] = test system: wild type laboratory HIV strain (HIV-1 strain LAI); experiment: Antiviral cellular assay (MT4 cells, MTT), wild type
Protocol: The compounds of the present invention were examined for anti-viral activity in a cellular assay. […] The cellular assay was performed according to the following procedure.
(§1) HIV- or mock-infected MT4 cells were incubated for five days in the presence of various concentrations of the inhibitor. At the end of the incubation period, the replicating virus in the control cultures has killed all HIV-infected cells in the absence of any inhibitor. Cell viability was determined by measuring the concentration of MTT, a yellow, water soluble tetrazolium dye that is converted to a purple, water insoluble formazan in the mitochondrial of living cells only. Upon solubilization of the resulting formazan crystals with isopropanol, the absorbance of the solution was monitored at 540 nm. The values correlate directly to the number of living cells remaining in the culture at the completion of the five day incubation. The inhibitory activity of the compound was monitored on the virus-infected cells and was expressed as EC50 and EC90. These values represent the amount of the compound required to protect 50% and 90%, respectively, of the cells from the cytopathogenic effect of the virus. The toxicity of the compound was measured on the mock-infected cells and was expressed as CC50, which represents the concentration of compound required to inhibit the growth of the cells by 50%. The selectivity index (SI) (ratio CC50/EC50) is an indication of the selectivity of the anti-HIV activity of the inhibitor. Wherever results are reported as e.g. pEC50 or pCC50 values, the result is expressed as the negative logarithm of the result expressed as EC50 or CC50 respectively.

in vitro = conditions: human
Protocol: as §1, with “The toxicity of the compound was measured on the mock-infected cells and was expressed as CC50, which represents the concentration of compound required to inhibit the growth of the cells by 50%. The selectivity index (SI) (ratio CC50/EC50) is an indication of the selectivity of the anti-HIV activity of the inhibitor.” left out
(§2) Row WT: pEC50 against wild type HlV-LAI strain. The toxicity (Tox) is expressed as the pCC50 value as determined with mock transfected cells. ND means not determined.

HIV strain B (K103N) = experiment: Antiviral cellular assay, mutant strain B
Protocol: as §1
(§3) Because of the increasing emergence of drug resistant HIV strains, the present compounds were also tested for their potency against clinically isolated HIV strains harbouring several mutations (Tables 1 and 7). These mutations are associated with resistance to reverse transcriptase inhibitors and result in viruses that show various degrees of phenotypic cross-resistance to the currently commercially available drugs such as for instance AZT, didanosine, nevirapine, lamivudine and zalcibatine.

[2] = test system: HIV strain J (I31L, L100I, K103N, E138G, Y181C, L214F); experiment: Antiviral cellular assay, mutant strain J
Protocol: as §1, §3

[3] = test system: HIV strain I (K101E, K103N); experiment: Antiviral cellular assay, mutant strain I
Protocol: as §1, §3

HIV strain E (F227C) = experiment: Antiviral cellular assay, mutant strain E
Protocol: as §1, §3

[4] = test system: SIV (simian immunodeficiency virus); experiment: Antiviral cellular assay, SIV; conditions: read-out: pEC50 towards SIV (converted)
[5] = test system: HIV strain H (K103N, Y181C); experiment: Antiviral cellular assay, mutant strain H
Protocol: as §1, §3

HIV-2 = experiment: Antiviral cellular assay, HIV-2; conditions: Human immunodeficiency virus 2; read-out: pEC50 towards HIV-2 (converted)
Protocol: as §1, with “The toxicity of the compound was measured on the mock-infected cells and was expressed as CC50, which represents the concentration of compound required to inhibit the growth of the cells by 50%. The selectivity index (SI) (ratio CC50/EC50) is an indication of the selectivity of the anti-HIV activity of the inhibitor.” left out
as §2

HIV strain F (Y188L) = experiment: Antiviral cellular assay, mutant strain F
Protocol: as §1, §3

HIV strain A (Y181C) = experiment: Antiviral cellular assay, mutant strain A
Protocol: as §1, §3

[6] = test system: HIV strain D (L100I;K103N); experiment: Antiviral cellular assay, mutant strain D
Protocol: as §1, §3

[7] = test system: HIV strain G (V106A, F227L); experiment: Antiviral cellular assay, mutant strain G
Protocol: as §1, §3

[8] = test system: HIV strain K (multi-mutant incl. M41L, D67N, K103N, Y181C, L210W, T215Y); experiment: Antiviral cellular assay, mutant strain K
Protocol: as §1, §3

[9] = test system: HIV strain C (L100I; K103N); experiment: Antiviral cellular assay, mutant strain C
Protocol: as §1, §3

[10] = Human immunodeficiency virus 1, MT4, read-out: EC50 value, wild-type HIV-LAI strain
[11] = EC50 mutant / EC50 wild type, rounded to nearest integer

SMILES: N#Cc1cc2c(c3ccccc3n2C2CCCC2)n(-c2ccc([N+](=O)[O-])cc2)c1=O [Compound 10]
- EC50 [1, 10]: 1000 to 32000 nM

SMILES: Cn1c2ccccc2c2c1cc(C#N)c(=O)n2-c1cccc([N+](=O)[O-])c1 [Compound 43]
- EC50 [1, 10]: < 1000 nM

SMILES: Cn1c2ccccc2c2c1ccc(=O)n2-c1ccc(C#N)cc1 [Compound 96]
- EC50 [1, 10]: 1000 to 32000 nM

SMILES: O=C(O)c1ccc(-n2c(=O)ccc3[nH]c4ccccc4c32)cc1 [Compound 94]
- EC50 [1, 10]: 1000 to 32000 nM

SMILES: N#Cc1cc2[nH]c3ccccc3c2n(-c2ccc(F)c([N+](=O)[O-])c2)c1=O [Compound 41]
- EC50 [1, 10]: 1000 to 32000 nM

SMILES: N#Cc1ccc(-n2c(=O)c(C#N)cc3[nH]c4ccccc4c32)cc1 [Compound 45]
- EC50 [1, 10]: > 32000 nM

SMILES: N#Cc1cc2c(c3ccccc3n2CC(=O)O)n(-c2ccc([N+](=O)[O-])cc2)c1=O [Compound 19]
- EC50 [1, 10]: 1000 to 32000 nM

SMILES: Cn1c2ccccc2c2c1ccc(=O)n2-c1ccc(C(=O)O)cc1 [Compound 99]
- EC50 [1, 10]: 1000 to 32000 nM

SMILES: N#Cc1cc2c(c3ccccc3n2Cc2ccccc2)n(-c2ccc([N+](=O)[O-])cc2)c1=O [Compound 6]
- EC50 [1, 10]: 1000 to 32000 nM

SMILES: Cn1c2ccccc2c2c1ccc(=O)n2-c1ccc([N+](=O)[O-])cc1 [Compound 67]
- EC50 [1, 10]: < 1000 nM

SMILES: N#Cc1ccc(-n2c(=O)ccc3[nH]c4ccccc4c32)cc1 [Compound 93]
- EC50 [1, 10]: 1000 to 32000 nM

SMILES: Cn1c2ccccc2c2c1cc(C#N)c(=O)n2-c1ccc(C#N)cc1 [Compound 46]
- EC50 [1, 10]: 1000 to 32000 nM

SMILES: Cn1c2ccccc2c2c1ccc(=O)n2-c1ccc(C(N)=O)cc1 [Compound 98]
- EC50 [1, 10]: 1000 to 32000 nM

SMILES: N#Cc1cc2[nH]c3ccccc3c2n(-c2ccc(F)cc2)c1=O [Compound 37]
- EC50 [1, 10]: > 32000 nM

SMILES: N#Cc1cc2[nH]c3ccccc3c2n(-c2ccc([N+](=O)[O-])cc2)c1=O [Compound 1, 1-(4-nitro-phenyl)-2-oxo-2,5-dihydro-1H-pyrido[3,2-b]indole-3-carbonitrile]
- CC50 at 5 days (in vitro): > 32400 nM
- fold resistance, mutant B (HIV strain B (K103N); [11]): (4)
- EC50 (HIV strain B (K103N); Human immunodeficiency virus 1, read-out: pEC50 towards mutant B (converted)): 1260 nM
- fold resistance, mutant J [2, 11]: (5)
- EC50 ([2]; Human immunodeficiency virus 1, read-out: pEC50 towards mutant J (converted)): 1580 nM
- fold resistance, mutant I [3, 11]: (3)
- EC50 ([3]; Human immunodeficiency virus 1, read-out: pEC50 towards mutant I (converted)): 794 nM
- fold resistance, mutant E (HIV strain E (F227C); [11]): (6)
- EC50 (HIV strain E (F227C); Human immunodeficiency virus 1, read-out: pEC50 towards mutant E (converted)): 2000 nM
- EC50 [4]: 7940 nM
- EC50 ([1]; Human immunodeficiency virus 1, WT, MT4 cells, read-out: pEC50 against wild type HIV-LAI strain (converted)): 316 nM
- fold resistance, mutant H [5, 11]: (5)
- EC50 ([5]; Human immunodeficiency virus 1, read-out: pEC50 towards mutant H (converted)): 1580 nM
- EC50 (HIV-2): 6310 nM
- fold resistance, mutant F (HIV strain F (Y188L); [11]): (4)
- EC50 (HIV strain F (Y188L); Human immunodeficiency virus 1, read-out: pEC50 towards mutant F (converted)): 1260 nM
- fold resistance, mutant A (HIV strain A (Y181C); [11]): (8)
- EC50 (HIV strain A (Y181C); Human immunodeficiency virus 1, read-out: pEC50 towards mutant A (converted)): 2510 nM
- fold resistance, mutant D [6, 11]: (3)
- EC50 ([6]; Human immunodeficiency virus 1, read-out: pEC50 towards mutant D (converted)): 1000 nM
- fold resistance, mutant G [7, 11]: (2)
- EC50 ([7]; Human immunodeficiency virus 1, read-out: pEC50 towards mutant G (converted)): 631 nM
- fold resistance, mutant K [8, 11]: (1)
- EC50 ([8]; Human immunodeficiency virus 1, read-out: pEC50 towards mutant K (converted)): 316 nM
- fold resistance, mutant C [9, 11]: (8)
- EC50 ([9]; Human immunodeficiency virus 1, read-out: pEC50 towards mutant C (converted)): 2510 nM
